# Laboratory results published in publication PMC11400633, “Peptides inhibiting the assembly of monomeric human L‐lactate dehydrogenase into catalytically active homotetramer decrease the synthesis of lactate in cultured cells” (Protein Science : A Publication of the Protein Society, 2024).
# *1 amine or outer side, *2 acyl side, *3 side chain or, on linkers, in order; H or OH if unused. [ ]: non-standard residue; d: D form. The star is where a group is joined. d(βAsp) = O=C(O)[C@@H](CC(=O)[*:2])N[*:1]; OBn = c1ccc(CO*)cc1
# Target: T1, monomeric human LDH‐A (Homo sapiens, UniProt P00338)
# T1 construct: made in house; host or cells: E. coli BL21(DE3), pET9a (NdeI/BamHI)
# Test: Inhibition by peptides of LDH-A activity gained on assembly of monomeric LDH-A into tetramer
# Type: biochemical
# Settings: 80 μM peptide incubated 5 min with 6.2 nM monomeric LDH-A, 10 mM Tris-HCl + 10 mM BisTris pH 7.5, started with 125 μM β-NADH and 500 μM pyruvate, 25°C, A340, vs control with 1% DMSO, mean ± SD, n = 3
# Description: In particular, all the peptides were tested at 80 μM (final concentration), and the LDH activity detected in their presence was compared with the catalytic action observed with control samples devoid of any peptide. First, we decided to assay the octameric peptide TH1, the primary structure of which ([…]) is identical to the LDH‐A region spanning residues 295–302. […] Indeed, the catalytic action exerted by 6 nM tetrameric LDH‐A (in 10 mM Tris–HCl, pH 7.5, containing 150 mM NaCl) was determined as equal to 433 ± 11 and 452 ± 19 nM/s in the absence and in the presence of 80 μM TH1 octapeptide, respectively. Overall, this insensitivity along with the significant effect elicited by TH1 on monomeric LDH‐A indicate that the octapeptide inhibits the assembly of LDH‐A monomers into the corresponding, catalytically active, tetramer. To dissect the inhibition triggered by TH1 on monomeric LDH‐A, we decided to evaluate: (i) whether or not the two halves of the octapeptide, that is, GQNG and ISDL, are equally competent in inhibiting LDH‐A; (ii) the action of linear and cyclic peptides, containing or not D amino acids; and (iii) the effect, if any, triggered by the presence of protecting groups in the peptides to be assayed. It should be noted that to allow the cyclization of tetrapeptide GQNG while maintaining a terminal carboxylic group, the sequence was modified to GQND, while for the cyclization of ISDL while maintaining a terminal amino group, the sequence was modified into KSDL (Table 1).
# FIGURE 8 Inhibition exerted by linear and cyclic peptides on LDH‐A activity detected in vitro. […] The gray bars (in “a” and “d”) represent the activity observed in the presence of the same volume of DMSO (1%, v/v) carried to the assay mixtures by the peptides to be tested. (a–c) The effect, if any, of tetrameric peptides featuring the GQND primary structure (see also Table 1) on LDH‐A activity is shown. The inhibition exerted by the octameric peptide TH1 is also reported in “a.” The enzyme activity observed in the presence of linear or cyclic peptides is shown in “b” and “c”, respectively. (d) Extent of LDH‐A activity detected in the presence of linear or cyclic tetrapeptides featuring the KSDL primary structure. Error bars represent SD (n = 3). The experimental observations were compared by Student's t‐test. The ***, **, and * symbols denote p values lower than 0.001, 0.01, and […], respectively. (e) Simulation of the association between the TH2 peptide and monomeric LDH‐A. Predicted interactions between the cyclopeptide c[GQN‐isoD] (TH2) and the N‐terminal sequence Y^9[…]^19, as simulated by molecular dynamics in a box of explicit TIP3P water molecules; gray and red dotted lines represent hydrogen bonds and salt bridges, respectively.
# All the assays were performed at 25°C using a Cary 300 Bio spectrophotometer.
row,Inhibition (%) of LDH‐A activity [%],Substance
1,14 ± 7,H-GQND-OBn (SMILES NCC(=O)N[C@@H](CCC(N)=O)C(=O)N[C@@H](CC(N)=O)C(=O)N[C@@H](CC(=O)O)C(=O)OCc1ccccc1) [TH6]
2,9 ± 2,cyclo(GQND(OBn)) (SMILES NC(=O)CC[C@@H]1NC(=O)CNC(=O)[C@H](CC(=O)OCc2ccccc2)NC(=O)[C@H](CC(N)=O)NC1=O) [TH15]
3,5 ± 6,H‐Lys‐Ser‐Asp‐Leu‐OH [TH18]
4,6 ± 3,c[Gly‐Gln‐Asn‐isoAsp(OBn)] (head to tail) [TH10]
5,26 ± 1,cyclo(GQN[d(βAsp)]) (SMILES NC(=O)CC[C@@H]1NC(=O)CNC(=O)C[C@H](C(=O)O)NC(=O)[C@H](CC(N)=O)NC1=O) [TH3]
6,7 ± 3,c[isoLys‐Ser‐Asp‐D‐Leu] (sidechain bridge or staple) [TH5]
7,4 ± 3,H-KSD[dL]-OH (SMILES CC(C)C[C@@H](NC(=O)[C@H](CC(=O)O)NC(=O)[C@H](CO)NC(=O)[C@@H](N)CCCCN)C(=O)O) [TH19]
8,16 ± 3,c[isoLys‐Ser‐Asp‐Leu] (sidechain bridge or staple) [TH4]
9,8 ± 4,c[Gly‐Gln‐Asn‐D‐isoAsp(OBn)] (head to tail) [TH11]
10,15 ± 4,H-GQND(OBn)-OH (SMILES NCC(=O)N[C@@H](CCC(N)=O)C(=O)N[C@@H](CC(N)=O)C(=O)N[C@@H](CC(=O)OCc1ccccc1)C(=O)O) [TH14]
